Assay results: PubChem BioAssay AID1963851 (Molecular Pharmacology Branch, DTP, NCI, 2024)
pIC50: −log10 of the molar value.

Tested on: 188146-221-R-J1-PDC complex spheroid viability
Test: Anticancer human tumor 188146-221-R-J1-PDC patient-derived colon adenocarcinoma cell line growth inhibition [POLQ]
Details: for pIC50: curve of first compound; for viability, T/C: stronger effect = lower value
How it was run: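 PDC + HUVEC + MSC complex spheroids; POLQ inhibitors ± partner drugs; top conc. at/near clinical Cmax, else 10 microM (SN-38 1 microM), half-log dilutions; 37 degrees C, 5% CO2.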
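Also: spheroids exposed to compounds for seven days.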
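For viability, T/C in this document: 100% = DMSO vehicle control viability.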

Cn1ncnc1[C@H]1c2n[nH]c(=O)c3cc(F)cc(c23)N[C@@H]1c1ccc(F)cc1 + COC1C(OC(N)=O)C(O)C(Oc2ccc3c(O)c(NC(=O)c4ccc(O)c(CC=C(C)C)c4)c(=O)oc3c2C)OC1(C)C
pIC50 (second compound 0.0316 µM): < 7.00
pIC50 (second compound 0.1 µM): < 7.00
pIC50 (second compound 0.316 µM): < 7.00
pIC50 (second compound 1 µM): < 7.00
pIC50 (second compound 3.16 µM): < 7.00
pIC50 (second compound 10 µM): < 7.00
viability, T/C (second compound 0.0316 µM, first compound 0.000316 µM): 109%
viability, T/C (second compound 0.0316 µM, first compound 0.001 µM): 93.7%
viability, T/C (second compound 0.0316 µM, first compound 0.00316 µM): 104%
viability, T/C (second compound 0.0316 µM, first compound 0.01 µM): 113%
viability, T/C (second compound 0.0316 µM, first compound 0.0316 µM): 97.9%
viability, T/C (second compound 0.0316 µM, first compound 0.1 µM): 88.4%
viability, T/C (second compound 0.1 µM, first compound 0.000316 µM): 108%
viability, T/C (second compound 0.1 µM, first compound 0.001 µM): 108%
viability, T/C (second compound 0.1 µM, first compound 0.00316 µM): 108%
viability, T/C (second compound 0.1 µM, first compound 0.01 µM): 101%
viability, T/C (second compound 0.1 µM, first compound 0.0316 µM): 99.5%
viability, T/C (second compound 0.1 µM, first compound 0.1 µM): 86.8%
viability, T/C (second compound 0.316 µM, first compound 0.000316 µM): 114%
viability, T/C (second compound 0.316 µM, first compound 0.001 µM): 102%
viability, T/C (second compound 0.316 µM, first compound 0.00316 µM): 98.2%
viability, T/C (second compound 0.316 µM, first compound 0.01 µM): 93.8%
viability, T/C (second compound 0.316 µM, first compound 0.0316 µM): 98.8%
viability, T/C (second compound 0.316 µM, first compound 0.1 µM): 88.8%
viability, T/C (second compound 1 µM, first compound 0.000316 µM): 107%
viability, T/C (second compound 1 µM, first compound 0.001 µM): 113%
viability, T/C (second compound 1 µM, first compound 0.00316 µM): 108%
viability, T/C (second compound 1 µM, first compound 0.01 µM): 107%
viability, T/C (second compound 1 µM, first compound 0.0316 µM): 98.2%
viability, T/C (second compound 1 µM, first compound 0.1 µM): 101%
viability, T/C (second compound 3.16 µM, first compound 0.000316 µM): 108%
viability, T/C (second compound 3.16 µM, first compound 0.001 µM): 103%
viability, T/C (second compound 3.16 µM, first compound 0.00316 µM): 106%
viability, T/C (second compound 3.16 µM, first compound 0.01 µM): 97.5%
viability, T/C (second compound 3.16 µM, first compound 0.0316 µM): 110%
viability, T/C (second compound 3.16 µM, first compound 0.1 µM): 102%
viability, T/C (second compound 10 µM, first compound 0.000316 µM): 114%
viability, T/C (second compound 10 µM, first compound 0.001 µM): 104%
viability, T/C (second compound 10 µM, first compound 0.00316 µM): 111%
viability, T/C (second compound 10 µM, first compound 0.01 µM): 104%
viability, T/C (second compound 10 µM, first compound 0.0316 µM): 103%
viability, T/C (second compound 10 µM, first compound 0.1 µM): 105%
